Measured values as given in the supplement of paper PMC10307832.

Key:
Test in all cases: relative viability (nuclei count vs DMSO), 5 days (fraction); higher = more cells survive
NCI-H2087 = system: NCI-H2087
Method in brief: (§1)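 Nuclei were stained with Hoechst during a one-step fixation (final 0.05% Triton X-100, 1% formaldehyde, 1 ug/ml Hoechst) carried out 5 days after dosing, then counted on 4× images. The cells, lung cancer lines in 1536-well plates, had been dosed by pin tool the day after seeding with one drug alone or a fixed anchor-drug dose plus five library-drug doses (not always all listed) in √10 steps. Relative viability is the nuclei count in treated wells divided by that in vehicle wells, and each value is the median of duplicate plates.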

COR-L 105 = system: COR-L 105
Method in brief: as §1

201T = system: 201T
Method in brief: as §1

NCI-H1437 = system: NCI-H1437
Method in brief: as §1

NCI-H2170 = system: NCI-H2170
Method in brief: as §1

NCI-H647 = system: NCI-H647
Method in brief: as §1

HCC-827 = system: HCC-827
Method in brief: as §1

NCI-H1975 = system: NCI-H1975
Method in brief: as §1

SW 1573 = system: SW 1573
Method in brief: as §1

LOU-NH91 = system: LOU-NH91
Method in brief: as §1

NCI-H2342 = system: NCI-H2342
Method in brief: as §1

CC(=O)O[C@@]12CO[C@@H]1C[C@H](O)[C@@]1(C)C(=O)[C@H](O)C3=C(C)[C@@H](OC(=O)[C@H](O)[C@@H](NC(=O)OC(C)(C)C)c4ccccc4)C[C@@](O)([C@@H](OC(=O)c4ccccc4)[C@H]21)C3(C)C [Docetaxel] + COc1cccc2cc(-c3nc([C@H]4CC[C@H](C(=O)O)CC4)n4ncnc(N)c34)[nH]c12 [OSI-027] (partner 0.5 µM)
relative viability (NCI-H2087; first compound 0.0002 µM): 0.464
relative viability (NCI-H2087; first compound 0.000632 µM): 0.359
relative viability (NCI-H2087; first compound 0.002 µM): 0.142
relative viability (NCI-H2087; first compound 0.006325 µM): 0.113
relative viability (NCI-H2087; first compound 0.02 µM): 0.111
relative viability (COR-L 105; first compound 0.0002 µM): 0.569
relative viability (COR-L 105; first compound 0.000632 µM): 0.654
relative viability (COR-L 105; first compound 0.002 µM): 0.408
relative viability (COR-L 105; first compound 0.006325 µM): 0.277
relative viability (COR-L 105; first compound 0.02 µM): 0.289
relative viability (201T; first compound 0.0002 µM): 0.528
relative viability (201T; first compound 0.000632 µM): 0.442
relative viability (201T; first compound 0.002 µM): 0.258
relative viability (201T; first compound 0.006325 µM): 0.132
relative viability (201T; first compound 0.02 µM): 0.0963
relative viability (NCI-H1437; first compound 0.0002 µM): 0.767
relative viability (NCI-H1437; first compound 0.000632 µM): 0.861
relative viability (NCI-H1437; first compound 0.002 µM): 0.311
relative viability (NCI-H1437; first compound 0.006325 µM): 0.162
relative viability (NCI-H1437; first compound 0.02 µM): 0.114
relative viability (NCI-H2170; first compound 0.0002 µM): 0.734
relative viability (NCI-H2170; first compound 0.000632 µM): 0.754
relative viability (NCI-H2170; first compound 0.002 µM): 0.339
relative viability (NCI-H2170; first compound 0.006325 µM): 0.256
relative viability (NCI-H647; first compound 0.0002 µM): 0.524
relative viability (NCI-H647; first compound 0.000632 µM): 0.432
relative viability (NCI-H647; first compound 0.002 µM): 0.229
relative viability (NCI-H647; first compound 0.006325 µM): 0.0929
relative viability (NCI-H647; first compound 0.02 µM): 0.0717
relative viability (HCC-827; first compound 0.0002 µM): 0.783
relative viability (HCC-827; first compound 0.000632 µM): 0.848
relative viability (HCC-827; first compound 0.002 µM): 0.52
relative viability (HCC-827; first compound 0.006325 µM): 0.226
relative viability (HCC-827; first compound 0.02 µM): 0.169
relative viability (NCI-H1975; first compound 0.0002 µM): 0.66
relative viability (NCI-H1975; first compound 0.000632 µM): 0.479
relative viability (NCI-H1975; first compound 0.002 µM): 0.217
relative viability (NCI-H1975; first compound 0.006325 µM): 0.16
relative viability (NCI-H1975; first compound 0.02 µM): 0.11
relative viability (SW 1573; first compound 0.0002 µM): 0.677
relative viability (SW 1573; first compound 0.000632 µM): 0.326
relative viability (SW 1573; first compound 0.002 µM): 0.199
relative viability (SW 1573; first compound 0.02 µM): 0.124
relative viability (LOU-NH91; first compound 0.0002 µM): 0.698
relative viability (LOU-NH91; first compound 0.000632 µM): 0.733
relative viability (LOU-NH91; first compound 0.002 µM): 0.466
relative viability (LOU-NH91; first compound 0.006325 µM): 0.344
relative viability (LOU-NH91; first compound 0.02 µM): 0.3
relative viability (NCI-H2342; first compound 0.0002 µM): 0.592
relative viability (NCI-H2342; first compound 0.000632 µM): 0.609
relative viability (NCI-H2342; first compound 0.002 µM): 0.502
relative viability (NCI-H2342; first compound 0.006325 µM): 0.46
relative viability (NCI-H2342; first compound 0.02 µM): 0.423
